This note sets out measurements from patent US20100286164A1, “SUBSTITUTED ARYL ALKYLAMINO-OXY-ANALOGS AND USES THEREOF” (The Brigham and Women's Hospital, Inc, priority 2007, published 2010).

This assay addresses T1, γ-secretase (Aβ1-40 production) (Homo sapiens, UniProt P49768).
T1 construct: made in house; host or cells: S-1 CHO cell line (Chinese hamster ovary)
As to the kind of experiment: γ-Secretase assay, Aβ1-40 ELISA. The format is biochemical. The following applies: 100 μM. The method, then:
Purification of γ-Secretase and in Vitro γ-Secretase Assays—The following procedures can be used to isolate γ-secretase and measure its enzymatic activity. The multistep procedure for the high grade purification of human γ-secretase from the S-1 cells is performed as described previously (Fraering, P. C., et al. (2004) Biochemistry 43, 9774-9789). In vitro γ-secretase assays using the recombinant APP-based substrate C100FLAG and the recombinant Notch-based substrate N100FLAG are performed as reported previously (Esler, W. P., Kimberly, W. T., Ostaszewski, B. L., Ye, W., Diehl, T. S., Selkoe, D. J., and Wolfe, M. S. (2002) Proc. Natl. Acad. Sci. U.S.A. 99, 2720-2725, Kimberly, W. T., et al. (2003) Biochemistry 42, 137-144). Basically, the proteolytic reaction mixtures contain C100FLAG and N100FLAG substrate at a concentration of 1 μm, purified γ-secretase solubilized in 0.2% CHAPSO/HEPES, pH 7.5, at 10-fold dilution from stock (stock=the M2 anti-FLAG-eluted fraction in the purification protocol from S-1 cells (Fraering, P. C., et al. (2004) Biochemistry 43, 9774-9789)), 0.025% phosphatidylethanolamine (PE), and 0.10% phosphatidylcholine (PC). All the reactions are stopped by adding 0.5% SDS, and the samples are assayed for Aβ40 and Aβ42 by ELISA as described (Xia, W., Zhang, J., Ostaszewski, B. L., Kimberly, W. T., Seubert, P., Koo, E. H., Shen, J., and Selkoe, D. J. (1998) Biochemistry 37, 16465-16471). The capture antibodies are 2G3 (to Aβ residues 33-40) for the Aβ40 species and 21F12 (to Aβ residues 33-42) for the Aβ42 species.
Naphthyl Amine Alcohol Analogs and Assay Data—Compounds listed in Table 2 may be assayed as described herein (e.g., in Examples 3 and 4) and the specificity may be evaluated by comparing the relative inhibitions of C-100 Flag and N-100 Flag cleavage. The potency of the inhibitor may be evaluated with an Aβ1-40 ELISA assay (e.g., using an Aβ40 ELISA kit available from Invitrogen, Carlsbad, Calif.). […] The following table indicates the properties of certain compounds of the invention that were assayed as described herein. (INH=Inhibits)

What is called inhibition is the drop in the measured response relative to a control, in per cent. High values mean a strong effect, low ones a weak effect.

`CC(C)N(CCC(O)c1ccccc1)Cc1ccccc1` (stereo not drawn) [Example 4] came in with an inhibition at 100 µM of 10%.
Consider `OC(CCN(Cc1ccccc1)Cc1ccccc1)c1ccc2ccccc2c1` (stereo not drawn) [Example 5], for which the inhibition at 100 µM came to 32%.
For the molecule `OC(CCN1CCCCCCC1)c1ccc2ccccc2c1` (stereo not drawn) [Example 6], 100 µM produced 20% inhibition.
Same read-out and setting: then `OC(CCN(C1CCCCC1)C1CCCCC1)c1ccc2ccccc2c1` (stereo not drawn) [Example 7], with 7%.
Consider `CN(CCC(O)c1ccc2ccccc2c1)Cc1ccccc1` (stereo not drawn) [Example 8], for which the “γ-Secretase Assay ELISA % Inhibition [100 μM] Aβ1-40” value amounted to 15%.
In the case of `CC(C)CN(CCC(O)c1ccc2ccccc2c1)CC(C)C` (stereo not drawn) [Example 9], the inhibition at 100 µM was 0%.
`CC(C)(C)N(CCC(O)c1ccc2ccccc2c1)Cc1ccccc1` (stereo not drawn) [Example 11] had an inhibition at 100 µM of 0%.
In turn, `CN(CCc1ccccc1)CCC(O)c1ccc2ccccc2c1` (stereo not drawn) [Example 15] showed an inhibition at 100 µM of 27%.
Still for that read-out and setting: with `OC(CCN1CCC2(CC1)OCCO2)c1ccc2ccccc2c1` (stereo not drawn) [Example 16] the figure was 2%; with `OC(CCNc1ccc2c(c1)OCCO2)c1ccc2ccccc2c1` (stereo not drawn) [Example 21], 0%; with `OC(CCNc1ccc(C2CCCCC2)cc1)c1ccc2ccccc2c1` (stereo not drawn) [Example 22], 0%.
`OC(CCNc1ccc(Cl)c(Cl)c1)c1ccc2ccccc2c1` (stereo not drawn) [Example 23] returned an inhibition at 100 µM of 0%.
On the same count and under the same terms, with `OC(CCNc1ccc(C(F)(F)F)cc1)c1ccc2ccccc2c1` (stereo not drawn) [Example 24] the figure was 0%; with `COc1ccc(NCCC(O)c2ccc3ccccc3c2)cc1` (stereo not drawn) [Example 25], 0%.
Regarding `CN(CCC(O)c1ccc2ccccc2c1)c1ccc(Oc2ccccc2)cc1` (stereo not drawn) [Example 26], the inhibition at 100 µM stood at 6%.
Same read-out and setting: with `CC(C)N(CCC(O)c1ccc2ccccc2c1)c1ccc(Cl)cc1` (stereo not drawn) [Example 27] the figure was 0%; with `OC(CCNc1cc(F)ccc1F)c1ccc2ccccc2c1` (stereo not drawn) [Example 28], 0%; with `CC(C)N(CCC(O)c1ccc2ccccc2c1)Cc1ccc(C#N)cc1` (stereo not drawn) [Example 34], 19%.
Same read-out and setting: then `COc1cc(CN(CCC(O)c2ccc3ccccc3c2)C(C)C)cc(OC)c1` (stereo not drawn) [Example 35], with 17%; and `CC(C)N(CCC(O)c1ccc2ccccc2c1)Cc1cccc(C#N)c1` (stereo not drawn) [Example 36], with 7%; and `OC(CCN(Cc1ccccc1)C1CC1)c1ccc2ccccc2c1` (stereo not drawn) [Example 37], with 36%.
Still for that read-out and setting: with `CC(C)N(CCC(O)c1ccc(F)cc1)Cc1ccccc1` (stereo not drawn) [Example 38] the figure was 17%; with `OC(CCN1CCN(c2ccc(F)cc2)CC1)c1ccc(C(F)(F)F)cc1` (stereo not drawn) [Example 39], 14%; with `CC(C)(C)c1ccc(C(O)CCN2CCN(c3ccc(F)cc3)CC2)cc1` (stereo not drawn) [Example 40], 46%.
`CC(C)N(CCC(O)c1ccc2ccccc2c1)Cc1ccc(F)c(Cl)c1` (stereo not drawn) [Example 43] showed an inhibition at 100 µM of 0%.
Still for that read-out and setting: with `CC(C)N(CCCC(O)c1cccc2ccccc12)Cc1ccccc1` (stereo not drawn) [Example 45] the figure was 0%.
On the same count and under the same terms, then `CC(C)N(CCCC(O)c1ccc2ccccc2c1)Cc1ccccc1` (stereo not drawn) [Example 46], with 2%; and `OC(CCN1CCN(Cc2ccccc2)CC1)c1ccc2ccccc2c1` (stereo not drawn) [Example 47], with 0%.
Still for that read-out and setting: then `Cc1cc(C)c(C(O)CCN(Cc2ccccc2)C(C)C)c(C)c1` (stereo not drawn) [Example 49], with 0%.
Turning to `CC(C)N(CCC(O)c1ccc(OC2CCCCO2)cc1)Cc1ccccc1` (stereo not drawn) [Example 50], the inhibition at 100 µM was 0%.
Same read-out and setting: with `COc1ccc2cc(C(O)CCN(Cc3ccccc3)C(C)C)ccc2c1` (stereo not drawn) [Example 51] the figure was 10%.
In the case of `CC(C)N(CCC(O)c1ccc(Oc2ccccc2)cc1)Cc1ccccc1` (stereo not drawn) [Example 52], the inhibition at 100 µM turned out to be 24%.
Same read-out and setting: then `CC(C)N(CCC(O)c1cccc(OCc2ccccc2)c1)Cc1ccccc1` (stereo not drawn) [Example 53], with 31%.
